Tested on: male hamster auricular skin tissue sections containing sebaceous glands
Test: Sebum production inhibitory effect on hamster auricular skin tissue sections (radiolabeled acetate incorporation, method of Hall et al.)
Assay type: cell-based
Details: cultured 3 hours in Krebs-Ringer phosphate buffer, vs left auricula control
Method: Compounds of the present invention (Compound Nos. 1-10) were evaluated for sebum production inhibitory effect on hamster auricular skin tissue sections containing sebaceous glands.
The method of Hall et al. (Hall, D. W. R., Van den Hoven, W. E., Noordzij-Kamermans, N. J., Jaitly, K. D., Arch. Dermatol. Res., 275, 1 (1983)) was followed. Namely, male hamster auricular skin tissue sections (3 mm in diameter) containing sebaceous glands were cultured for 3 hours in Krebs-Ringer phosphate buffer containing radioactively labeled sodium acetate, and then tissues were hydrolyzed and extracted with hexane. The radioactively labeled fat levels in hexane were measured in a liquid scintillation counter to determine fat production inhibition levels in sebaceous glands. Skin tissues isolated from the right auricula were cultured in Krebs-Ringer phosphate buffer containing 0.01% or 0.05% of compounds of the present invention (Compound Nos. 1-10) (compound systems), while skin tissues from the left auricula of the same hamster were cultured in Krebs-Ringer phosphate buffer containing no compounds of the present invention (control system). The sebum production inhibition percentage was calculated by the equation below from the test data obtained. Sebum production inhibition (%)=[(Sebum production level in control system)−(Sebum production level in each compound system)]/(Sebum production level in control system)×100

[1] = Concentration of compound in the medium 0.01%
[2] = Concentration of compound in the medium 0.05%

Compound | Sebum production inhibition (%) [1] | Sebum production inhibition (%) [2]
CC(=O)N[C@@H]1[C@@H](O[C@@H]2O[C@H](C(=O)O)[C@@H](O[C@@H]3O[C@H](CO)[C@@H](O)[C@H](O[C@@H]4OC(C(=O)O)=C[C@H](O)[C@H]4O)[C@H]3NC(C)=O)[C@H](O)[C@H]2O)[C@H](O)[C@@H](CO)O[C@H]1O [compound 1, 4-deoxy-α-L-threo-hexa-4-enepyranuronosyl-(1→3)-O-2-acetamide-2-deoxy-β-D-glucopyranosyl-(1→4)-3-O-β-D-glucopyranuronosyl-(1→3)-O-2-acetamide-2-deoxy-β-D-glucopyranose] | 15.7% | 17.8%
CC(=O)N[C@@H]1[C@@H](O[C@@H]2O[C@H](C(=O)O)[C@@H](O[C@@H]3O[C@H](CO)[C@@H](O)[C@H](O[C@@H]4O[C@H](C(=O)O)[C@@H](O[C@@H]5O[C@H](CO)[C@@H](O)[C@H](O[C@@H]6OC(C(=O)O)=C[C@H](O)[C@H]6O)[C@H]5NC(C)=O)[C@H](O)[C@H]4O)[C@H]3NC(C)=O)[C@H](O)[C@H]2O)[C@H](O)[C@@H](CO)O[C@H]1O [compound 2, 4-deoxy-α-L-threo-hexa-4-enepyranuronosyl-(1→3)-O-2-acetamide-2-deoxy-β-D-glucopyranosyl-(1→4)-3-O-β-D-glucopyranuronosyl-(1→3)-O-2-acetamide-2-deoxy-β-D-glucopyranosyl-(1→4)-3-O-β-D-glucopyranuronosyl-(1→3)-O-2-acetamide-2-deoxy-β-D-glucopyranose] | 28.6% | 50.1%
CC(=O)N[C@@H]1[C@@H](O[C@@H]2O[C@H](C(=O)O)[C@@H](O[C@@H]3O[C@H](CO)[C@@H](O)[C@H](O[C@@H]4O[C@H](C(=O)O)[C@@H](O[C@@H]5O[C@H](CO)[C@@H](O)[C@H](O[C@@H]6O[C@H](C(=O)O)[C@@H](O[C@@H]7O[C@H](CO)[C@@H](O)[C@H](O[C@@H]8OC(C(=O)O)=C[C@H](O)[C@H]8O)[C@H]7NC(C)=O)[C@H](O)[C@H]6O)[C@H]5NC(C)=O)[C@H](O)[C@H]4O)[C@H]3NC(C)=O)[C@H](O)[C@H]2O)[C@H](O)[C@@H](CO)O[C@H]1O [compound 3, 4-deoxy-α-L-threo-hexa-4-enepyranuronosyl-(1→3)-O-2-acetamide-2-deoxy-β-D-glucopyranosyl-(1→4)-3-O-β-D-glucopyranuronosyl-(1→3)-O-2-acetamide-2-deoxy-β-D-glucopyranosyl-(1→4)-3-O-β-D-glucopyranuronosyl-(1→3)-O-2-acetamide-2-deoxy-β-D-glucopyranosyl-(1→4)-3-O-β-D-glucopyranuronosyl-(1→3)-O-2-acetamide-2-deoxy-β-D-glucopyranose] | 48.5% | 47.7%
CC(=O)N[C@@H]1[C@@H](O[C@@H]2O[C@H](C(=O)O)[C@@H](O[C@@H]3O[C@H](CO)[C@@H](O)[C@H](O[C@@H]4O[C@H](C(=O)O)[C@@H](O[C@@H]5O[C@H](CO)[C@@H](O)[C@H](O[C@@H]6O[C@H](C(=O)O)[C@@H](O[C@@H]7O[C@H](CO)[C@@H](O)[C@H](O[C@@H]8O[C@H](C(=O)O)[C@@H](O[C@@H]9O[C@H](CO)[C@@H](O)[C@H](O[C@@H]%10OC(C(=O)O)=C[C@H](O)[C@H]%10O)[C@H]9NC(C)=O)[C@H](O)[C@H]8O)[C@H]7NC(C)=O)[C@H](O)[C@H]6O)[C@H]5NC(C)=O)[C@H](O)[C@H]4O)[C@H]3NC(C)=O)[C@H](O)[C@H]2O)[C@H](O)[C@@H](CO)O[C@H]1O [compound 4] | 53.4% | 51.0%
CC(=O)N[C@H]1[C@H](O[C@H]2[C@H](O)[C@@H](O)[C@H](O[C@@H]([C@H](O)[C@H](O)CO)[C@H](CO)NC(C)=O)O[C@@H]2C(=O)O)O[C@H](CO)[C@@H](O)[C@@H]1O[C@@H]1OC(C(=O)O)=C[C@H](O)[C@H]1O [compound 5, 4-deoxy-α-L-threo-hexa-4-enepyranuronosyl-(1→3)-O-2-acetamide-2-deoxy-β-D-glucopyranosyl-(1→4)-3-O-β-D-glucopyranuronosyl-(1→3)-O-2-acetamide-2-deoxy-β-D-glucopyranitol] | 16.2% | 18.1%
CC(=O)N[C@H]1[C@H](O[C@H]2[C@H](O)[C@@H](O)[C@H](O[C@@H]([C@H](O)[C@H](O)CO)[C@H](CO)NC(C)=O)O[C@@H]2C(=O)O)O[C@H](CO)[C@@H](O)[C@@H]1O[C@@H]1O[C@H](C(=O)O)[C@@H](O[C@@H]2O[C@H](CO)[C@@H](O)[C@H](O[C@@H]3OC(C(=O)O)=C[C@H](O)[C@H]3O)[C@H]2NC(C)=O)[C@H](O)[C@H]1O [compound 6, 4-deoxy-α-L-threo-hexa-4-enepyranuronosyl-(1→3)-O-2-acetamide-2-deoxy-β-D-glucopyranosyl-(1→4)-3-O-β-D-glucopyranuronosyl-(13)-O-2-acetamide-2-deoxy-β-D-glucopyranosyl-(1→4)-3-O-β-D-glucopyranuronosyl-(1→3)-O-2-acetamide-2-deoxy-β-D-glucopyranitol] | 30.8% | 55.7%
CC(=O)N[C@H]1[C@H](O[C@H]2[C@H](O)[C@@H](O)[C@H](O)O[C@@H]2C(=O)O)O[C@H](CO)[C@@H](O)[C@@H]1O[C@@H]1OC(C(=O)O)=C[C@H](O)[C@H]1O [compound 7, 4-deoxy-α-L-threo-hexa-4-enepyranuronosyl-(1-3)-O-2-acetamide-2-deoxy-β-D-glucopyranosyl-(1→4)-3-O-β-D-glucopyranuronic acid] | 14.2% | 15.9%
CC(=O)N[C@H]1[C@H](O[C@H]2[C@H](O)[C@@H](O)[C@H](O)O[C@@H]2C(=O)O)O[C@H](CO)[C@@H](O)[C@@H]1O[C@@H]1O[C@H](C(=O)O)[C@@H](O[C@@H]2O[C@H](CO)[C@@H](O)[C@H](O[C@@H]3OC(C(=O)O)=C[C@H](O)[C@H]3O)[C@H]2NC(C)=O)[C@H](O)[C@H]1O [compound 8, 4-deoxy-α-L-threo-hexa-4-enepyranuronosyl-(1-3)-O-2-acetamide-2-deoxy-β-D-glucopyranosyl-(1-4)-3-O-β-D-glucopyranuronosyl-(13)-O-2-acetamide-2-deoxy-β-D-glucopyranosyl-(1→4)-3-O-β-D-glucopyranuronic acid] | 30.7% | 56.6%
CC(=O)N[C@H]1[C@H](O[C@@H]([C@H](O)[C@@H](O)CO)[C@H](O)C(=O)O)O[C@H](CO)[C@@H](O)[C@@H]1O[C@@H]1OC(C(=O)O)=C[C@H](O)[C@H]1O [compound 9, 4-deoxy-α-L-threo-hexa-4-enepyranuronosyl-(1→3)-O-2-acetamide-2-deoxy-β-D-glucopyranosyl-(1→4)-3-O-β-D-glucopyranuronitol] | 13.9% | 20.0%
CC(=O)N[C@H]1[C@H](O[C@@H]([C@H](O)[C@@H](O)CO)[C@H](O)C(=O)O)O[C@H](CO)[C@@H](O)[C@@H]1O[C@@H]1O[C@H](C(=O)O)[C@@H](O[C@@H]2O[C@H](CO)[C@@H](O)[C@H](O[C@@H]3OC(C(=O)O)=C[C@H](O)[C@H]3O)[C@H]2NC(C)=O)[C@H](O)[C@H]1O [compound 10, 4-deoxy-α-L-threo-hexa-4-enepyranuronosyl-(1→3)-O-2-acetamide-2-deoxy-β-D-glucopyranosyl-(1→4)-3-O-β-D-glucopyranuronosyl-(1→3)-O-2-acetamide-2-deoxy-β-D-glucopyranosyl-(1→4)-3-O-β-D-glucopyranuronitol] | 39.8% | 55.1%

Source: patent publication US6894034B1, “Sebum production inhibitors” (Maruha Corporation, priority 1999, dated 2005)
